Assay results reported in patent US20240415858A1, “PROMOTING MYELINATION BY N-ACETYLGLUCOSAMINE AND MODULATION OF N-GLYCAN BRANCHING” (THE REGENTS OF THE UNIVERSITY OF CALIFORNIA, priority 2021, published 2024).

What was measured:
[1] = test system: C57BL/6 mice with cuprizone induced demyelination; assay: Cuprizone induced demyelination / re-myelination model (rotarod, immunofluorescence, electron microscopy); type: in vivo, mouse
Procedure: Cuprizone at 0.2% induces demyelination in the corpus callosum by 3 weeks, with maximum demyelination at 5-6 weeks. 8-week-old C57BL/6 mice purchased from Jackson Laboratories or 8-week old Mgat5^+/− C57BL/6 mice were treated with 0.2% Cuprizone (Sigma) mixed into milled rodent chow for 6 weeks for the active phase treatment and 5 weeks for the recovery treatment. During active phase treatment, GIcNAc (1 mg/mL) in drinking water or just drinking water (control) was provided for the last 3 weeks of Cuprizone treatment. For the recovery phase treatment, GIcNAc in drinking water or control was provided after Cuprizone treatment had been stopped. Mice were anesthetized and underwent cardiac perfusion with 4% paraformaldehyde in PBS or 4% paraformaldehyde plus 0.5% glutaraldehyde in Sodium cacodylate buffer for immunofluorescence or electron microscopic analysis respectively. Brains were then fixed overnight in perfusion solution
One day prior to Cuprizone treatment, mice were trained on the rotarod by allowing them to run three 5-minute trials at a constant 30 rotations per minute (RPM). Mice then underwent weekly testing during Cuprizone and GIcNAc treatment on an accelerating rotarod starting at 4 rpm increasing to 40 rpm over 5 minutes. Latency for mice to fall was recorded. If a mouse was not running on the rotarod by holding on for 3 turns, this was considered a fall. For the active phase treatment, one trial was run every week. For the recovery phase treatment, 3 trials were run for each mouse each week and latencies were averaged. As expected with Cuprizone treatment performance degraded as treatment progressed.
For neural stem cell (NSC) immunofluorescence, whole neurospheres were seeded onto laminin-coated coverslips (Neuvitro) in proliferation medium. After 24 hours, proliferation media was removed and replaced with differentiation medium (same components as proliferation medium but excluding EGF, bFGF, and heparin) to induce differentiation. For analysis of mouse brains, brains were incubated in 30% sucrose for at least 72 hours, embedded in OCT (Tissue-tek), frozen for at least 48 hours at −80° C., and then cut at 40 microns on a cryostat. Multiple sections from −1 bregma to −2.5 bregma were then stained with antibodies for MBP (1:100; MAB386, Millipore), Olig2 (1:200; AB9610, Millipore), CC1 (1:100; OP90, Millipore), degraded MBP (1:200, AB5864, Millipore) and Amyloid Precursor Protein (APP, 1:200; clone 22C11). After overnight incubation with primary antibody, tissues were washed and incubated with secondary antibodies: goat anti-rat Alexa-fluor 488 (1:200, Thermofisher), goat anti-rabbit TxRd (1:200, Thermofisher). APP is a marker for neuro-axonal damage while co-staining for CC1 and Olig2 are markers of mature oligodendrocytes. In order to examine the amount of myelin, slices were incubated in Fluoromyelin (1:300; F34651, Thermofisher) for 45 minutes. Images were acquired on a Keyence fluorescence microscope. Mean fluorescence intensity of the medial corpus callosum was measured using ImageJ.
Three mice from each treatment group (control and GIcNAc) were selected randomly for EM analysis (before other investigations were performed). Portions of these brains from 0 to −1 bregma were rinsed in 0.1 M cacodylate buffer overnight and again for 15 min. the next day. 2×1 mm blocks of the corpus callosum were dissected out and post-fixed with 1% osmium tetroxide in 0.1 M cacodylate buffer for 1 hour, rinsed in ddH20, dehydrated in increasing serial dilutions of ethanol (70%, 85%, 95%, 100%×2) for 10 min each, put in propylene oxide (intermediate solvent) for 2×10 min, incubated in propylene oxide/Spurr's resin (1:1 mix) for 1 h, and then in Spurr's resin overnight. The blocks were put in a fresh change of resin in flat embedding molds the next day and polymerized overnight at 60° C. The blocks were sectioned at 1 μm using a Leica Ultracut UCT ultramicrotome. […]

[2] = test system: MS patients; assay: Open-label Phase 1 trial of oral GIcNAc in MS: safety, tolerability, relapse rate; type: in vivo, human
Procedure: (§1) Based on its immunomodulatory effects, a FDA approved (IND 122235) dose escalation was carried out, open-label NIH funded Phase 1 mechanistic clinical trial of oral GIcNAc in MS patients (RRMS and PMS) on glatiramer acetate and not in acute relapse, with the primary endpoint an increase in N-glycan branching in T cells. This endpoint was used as a surrogate marker for GIcNAc's biological activity. Three doses were evaluated: 1 g TID (3 g total, n=13), 2 g TID (6 g total, n=18) and 4 g TID (12 g total, n=16). Subjects had baseline blood drawn weekly four times, then started on oral GIcNAc with 4 weekly blood draws (FIG. 8A).
The annualized relapse rate on GIcNAc in the combined group was 0.277 (from a single relapse in a subject on the 6 g dose).

[3] = Phase 1 trial: serum HexNAc levels by LC-MS/MS; type: in vivo, human; conditions: 6 g and 12 g cohorts, after stopping oral GIcNAc
[4] = test system: blasting/activated CD25+CD4+ T cells; assay: Phase 1 trial: N-glycan branching in T cells by L-PHA flow cytometry; type: in vivo, human; conditions: for average increase of L-PHA binding in blasting/activated CD25+CD4+ T cells: oral
Procedure: as §1
To assess the primary endpoint (increased N-glycan branching in T cells), flow cytometry was used to assess binding of the plant lectin L-PHA (Phaseolus vulgaris leukoagglutinin) to T cells. L-PHA is a highly sensitive and specific measure of N-glycan branching. L-PHA binding was increased in blasting/activated CD25^+CD4^+ T cells in the 12 g (p=0.0065) and 6 g (p=0.037) but not the 3 g cohort, with average increases of 7%, 3% and 1.7% respectively (FIGS. 8H and 8I); the latter indicative of a dose response.

[5] = test system: MS patients; assay: Phase 1 trial: four-week confirmed improvement in disability (EDSS); type: in vivo, human; conditions: unblinded
Procedure: Four-week confirmed improvement in disability (EDSS) was also evaluated in the 6 g and 12 g cohorts. […] Baseline EDSS scores were compared with scores after 4 weeks of oral GIcNAc that were confirmed 4 weeks later at the last study visit.

[6] = GIcNAc only after cuprizone stopped, wildtype 2 weeks, Mgat5+/- 1 or 4 weeks
[7] = Mgat5+/- mice, 4 weeks GIcNAc after 5 weeks cuprizone
[8] = wildtype mice, GIcNAc during final 3 weeks of 6-week cuprizone exposure

CC(=O)N[C@H]1C(O)O[C@H](CO)[C@@H](O)[C@@H]1O (some centres unmarked) [GIcNAc, N-acetylglucosamine]
degraded MBP (dMBP)/myelin degeneration in the corpus callosum [1, 6]: reducing
levels of MBP in the corpus callosum [1, 6]: enhanced
levels of myelin (fluoromyelin) in the corpus callosum [1, 6]: enhanced
mature oligodendrocytes (CC1 Olig2+) in the corpus callosum [1, 6]: enhanced
axon loss (electron microscopy) [1, 7]: reducing
degree of myelination (g-ratio, electron microscopy) [1, 7]: enhanced
number of degenerating and dystrophic/swollen axons (electron microscopy) [1, 7]: reducing
number of myelinated axons (electron microscopy) [1, 7]: enhanced
number of paranodes (electron microscopy) [1, 7]: enhanced
increase in fluoromyelin staining, 4 versus 1 week of GIcNAc treatment ([1]; Mgat5+/- mice, recovery phase): ~2 fold
motor function (rotarod fall latency) ([1]; wildtype mice, GIcNAc during final 3 weeks of 6-week cuprizone (0.2%) exposure): prevented loss of motor function
MBP levels in the corpus callosum [1, 8]: increasing
axonal damage (accumulation of amyloid precursor protein, APP) in the corpus callosum [1, 8]: reducing
annualized relapse rate on GIcNAc ([2]; combined group, a single relapse in a subject on the 6 g dose): 0.277
subjects with mild GI symptoms (gas, bloating, loose stool) ([2]; oral, 12 g per day (4 g TID)): ~50%
discontinuation due to GI symptoms ([2]; oral, all doses): No subject discontinued
safety ([2]; oral, all doses (3 g, 6 g, 12 g per day), 4 weeks): safe
subjects with mild GI symptoms (gas, bloating, loose stool) ([2]; oral, the other doses (3 g, 6 g per day)): not
serum HexNAc levels during the washout period [3]: rapidly declined back to baseline
L-PHA binding in activated CD25+CD8+ T cells, resting CD25-CD4+ and CD25-CD8+ T cells and activated/resting CD19+ B cells ([4]; oral GIcNAc, data not shown): no increase
average increase of L-PHA binding in blasting/activated CD25+CD4+ T cells ([4]; 3 g cohort (not significant)): 1.7%
average increase of L-PHA binding in blasting/activated CD25+CD4+ T cells ([4]; 6 g cohort (p=0.037)): 3%
average increase of L-PHA binding in blasting/activated CD25+CD4+ T cells ([4]; 12 g cohort (p=0.0065)): 7%
L-PHA binding to blasting/activated CD25+CD4+ T cells during the washout period vs pre-GIcNAc or during GIcNAc ([4]; post-GIcNAc, 6 g and 12 g cohorts): no significant difference
subjects with 4-week confirmed improvement in clinical disability (EDSS) ([5]; 6 g/day, 4 of 18 subjects): 22%
subjects with 4-week confirmed improvement in clinical disability (EDSS) ([5]; 12 g/day, 5 of 16 subjects): 31%
